Laboratory results as given in patent US20260207604A1, “COMPOUND AND USE THEREOF” (ONQUALITY PHARMACEUTICALS CHINA LTD., priority 2022, published 2026).

Assay: Single-dose intravenous and oral pharmacokinetic study in mice
Assay type: in vivo, Balb/c mice
Details: mouse; male Balb/c mice, PO 50 mg/kg, plasma
Experimental: Twenty-seven male Balb/c mice were randomly divided into 3 groups, 9 mice in each group. Group 1: mice received an intravenous (IV) dose of Compound 1 at 5 mg/kg with a dosing volume of 5 mL/kg. Blood samples were collected at 0.083, 0.25, 0.5, 1, 2, 4, 6, 8, and 24 hours post-dose using a staggered sampling method. Group 2: mice received an oral (gavage) dose of Compound 1 at 50 mg/kg with a dosing volume of 10 mL/kg. Blood samples were collected at 0.25, 0.5, 1, 2, 4, 6, 8, and 24 hours post-dose using a staggered sampling method. Group 3: mice received an oral (gavage) dose of palbociclib at 50 mg/kg with a dosing volume of 10 mL/kg. Blood samples were collected at 1, 3, 4, 6, 8, 10, 12, and 24 hours post-dose using a staggered sampling method. For each group, 3 samples were collected at each time point. Plasma was separated by centrifugation and stored at −70° C. The concentrations of Compound 1 or palbociclib in plasma were measured using LC-MS/MS.

AUC(0-t): 18300 ng·h/mL | Cmax: 1320 ng/mL | Tmax: 8 h | half-life: 458 min
SMILES: CC(=O)c1c(C)c2cnc(Nc3ccc(N4CCNCC4)cn3)nc2n(C2CCCC2)c1=O [palbociclib, reference compound]
